Measured values from publication PMC8365602 (Journal of Medicinal Chemistry, 2021).

Tests used:
5-LOX [1] = molecular target: T1, 5-LOX (Homo sapiens, UniProt P09917); test: 5-LOX product formation in activated PMNL; conditions: PMNL, read-out: 5-LOX PMNL residual activity at 3 μM;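 note: freshly isolated human PMNL in PBS pH 7.4 plus glucose, preincubated 10 min at 37 °C with compound, 5-LOX products (all-trans LTB4 isomers, 5-HETE) quantified by RP-HPLC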
T1 sequence (P09917 1-674): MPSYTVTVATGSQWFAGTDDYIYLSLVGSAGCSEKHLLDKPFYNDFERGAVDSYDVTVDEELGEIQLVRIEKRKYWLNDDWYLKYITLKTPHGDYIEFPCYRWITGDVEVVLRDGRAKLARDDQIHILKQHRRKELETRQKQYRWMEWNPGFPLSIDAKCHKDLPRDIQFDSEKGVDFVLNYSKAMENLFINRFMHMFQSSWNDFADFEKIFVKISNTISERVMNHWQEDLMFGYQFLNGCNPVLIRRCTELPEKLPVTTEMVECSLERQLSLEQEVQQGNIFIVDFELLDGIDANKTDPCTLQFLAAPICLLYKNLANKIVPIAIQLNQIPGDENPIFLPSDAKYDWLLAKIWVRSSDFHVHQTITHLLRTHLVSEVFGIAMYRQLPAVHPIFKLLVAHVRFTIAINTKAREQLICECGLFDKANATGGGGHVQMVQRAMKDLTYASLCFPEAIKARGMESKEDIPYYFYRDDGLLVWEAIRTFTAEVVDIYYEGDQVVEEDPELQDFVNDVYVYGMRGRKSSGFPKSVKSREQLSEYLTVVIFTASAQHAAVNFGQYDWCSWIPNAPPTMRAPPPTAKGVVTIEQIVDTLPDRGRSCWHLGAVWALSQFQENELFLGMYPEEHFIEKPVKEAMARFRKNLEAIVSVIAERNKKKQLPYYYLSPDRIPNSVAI

5-LOX [2] = molecular target: T1, 5-LOX; test: Cell-free 5-LOX activity (isolated human recombinant enzyme); conditions: read-out: 5-LOX enzyme residual activity at 1 μM
Method: Human recombinant 5-LOX was expressed in E. coli Bl21 (DE3) cells that were transformed with pT3–5LOX (wt 5-LOX), 5-LOX_3W (triple mutation of Trp102Ala/Trp13Ala/Trp75Ala), or 5-LOX_R (single mutant of the Arg101Asp plasmid) and purified on an ATP-agarose column (Econo-Pac, Bio-Rad, Hercules, CA) by affinity chromatography.[6],[75]
Purified 5-LOX (0.5 μg in PBS pH 7.4 containing 1 mM EDTA and 1 mM ATP) was preincubated with the vehicle (DMSO) or test compounds for 10 min and prewarmed at 37 °C.

monocytes = test: Monocyte membrane integrity (LDH release); format: cell-based, human; conditions: higher concentrations (>1 μM)
Method: To measure mitochondrial dehydrogenase activity, 3-(4,5-dimethylthiazol-2-yl)-2,5-diphenyltetrazolium bromide (MTT) (20 μL, 5 mg/mL, Sigma-Aldrich) was added to PBMC. After 4 h in the darkness, the formed formazan product was solubilized (10% SDS in 20 mM HCl) and the absorbance was read at 570 nm using a Multiskan Spectrum microplate reader (Thermo Fisher Scientific).[81]
LDH release was measured in monocytes using a CytoTox 96 nonradioactive cytotoxicity assay (Promega, Madison, WI) according to the manufacturer’s instruction using Triton X-100 (0.8%) as the maximum LDH release control.

[3] = Hepatic metabolism in human liver-on-chip; format: in vitro ADME; conditions: 1 μM, 48 h
Method: LCMs, 27a, and 27a metabolites were extracted from PMNL, medium of the liver-on-chip, murine plasma, peritoneal exudate, or homogenized murine tissue as described.[6] In brief, PBS pH 7.4, methanol, chloroform, and saline (final ratio: 14:34:35:17) were successively added together with 13d (9 pmol) as the internal standard. The organic layer was evaporated, and the extracted LCMs were dissolved in methanol.
LCMs, 27a, and 27a metabolites were separated at a flow rate of 0.8 mL/min and a column temperature of 45 °C, with acetonitrile/H2O (10:90) as mobile phase A and acetonitrile as mobile phase B, both acidified with 0.07% formic acid. The linear gradient from A/B = 50:50 to 0:100 within 4.5 min was followed by isocratic elution with A/B = 0:100 for 1 min. MS parameters were adjusted according to Pein et al.[6] and as detailed in Table S3. Signal intensities were normalized to the internal standard 13d, and concentrations were calculated using external calibration curves as specified in Table S3. […]
The medium between the two membranes was renewed, and the vehicle (DMSO), 12a, or 27a were added. […] 12a, 27a, and their metabolites were extracted from the combined fractions and analyzed by UPLC-MS/MS.[6]

5-LOX [4] = molecular target: T1, 5-LOX; test: Tryptophan fluorescence spectroscopy of 5-LOX; format: binding; parameters: made in house; host or cells: E. coli Bl21 (DE3); conditions: 5-LOX titrated with compound, 0–10 μM
Method: Fluorescence spectroscopy measurements on human recombinant 5-LOX (Abcam, Cambridge, U.K.) were conducted in PBS pH 7.4 at 25 °C using an Edinburgh Instruments FLS920 Series fluorescence spectrophotometer (Livingston, U.K.). […] The concentration range of 5-LOX used through the experiments was 0.3–0.6 μM. 5-LOX was titrated with a stock solution of the test compounds in dimethylformamide to yield an experimental compound concentration in the range of 0–10 μM. The final dimethylformamide concentration was kept under 5%. After each addition, the sample was incubated for 10 min before measurement. The fluorescence emission intensity values were corrected for dilution and background noise. All conditions were measured independently and in duplicate.
The fluorescence spectral shifts were analyzed by monitoring the alterations in the spectral center of mass by estimating the intensity-averaged emission wavelength (⟨λ⟩), as calculated from the following equation, where Fi is the fluorescence emission intensity at wavenumber νi, and the summation was performed over the range of measured F values [drawing 1] 1

Cc1c(C)c2c(c(C)c1O)CC[C@@](C)(CCCC(C)CCCC(C)CCCC(C)C(=O)O)O2 (stereo partly drawn) [Compound 12a, α-T-13′-COOH]
remaining activity at 3 µM (5-LOX [1]): 2 ± 0.8% | remaining activity at 1 µM (5-LOX [2]): 0.8 ± 0.2% | LDH release from monocytes at higher concentrations (monocytes): not evident | Hepatic metabolism [3]: truncated to metabolites with varying side-chain lengths | Shift of spectral center of mass of intrinsic Trp fluorescence of 5-LOX (5-LOX [4]): substantially shifted to a shorter wavelength
